Earlier results in patent US20230285409A1, “METHODS OF USING RHO KINASE INHIBITORS TO TREAT VASCULAR DEMENTIA” (Woolsey Pharmaceuticals, Inc., priority 2020, published 2023).
Where a name gives a salt, the structure may show the parent alone.

How the values were obtained:
[1] = in vivo, 1-hydroxy metabolite; cited from earlier work
[2] = target: p38 mitogen-activated protein kinase (Homo sapiens, UniProt Q16539); conditions: cited from earlier work
[3] = system: triple transgenic mouse model (APP Swedish, MAPT P301L, and PSEN1 M146V); conditions: 10 mg/kg/day intraperitoneally; cited from earlier work
[4] = system: APP/PS1 transgenic mice; conditions: 5 and 10 mg/kg/day intraperitoneally; cited from earlier work
[5] = system: streptozotocin rats; conditions: 5 and 10 mg/kg/day intraperitoneally; cited from earlier work
[6] = system: patients with wandering due to VaD; conditions: cited from earlier work
[7] = system: VaD patients; conditions: cited from earlier work
[8] = system: triple transgenic mice; conditions: 30 mg/kg and 100 mg/kg in water, 10 or 12 months of age; cited from earlier work

Sequence of p38 mitogen-activated protein kinase (Q16539 whole entry): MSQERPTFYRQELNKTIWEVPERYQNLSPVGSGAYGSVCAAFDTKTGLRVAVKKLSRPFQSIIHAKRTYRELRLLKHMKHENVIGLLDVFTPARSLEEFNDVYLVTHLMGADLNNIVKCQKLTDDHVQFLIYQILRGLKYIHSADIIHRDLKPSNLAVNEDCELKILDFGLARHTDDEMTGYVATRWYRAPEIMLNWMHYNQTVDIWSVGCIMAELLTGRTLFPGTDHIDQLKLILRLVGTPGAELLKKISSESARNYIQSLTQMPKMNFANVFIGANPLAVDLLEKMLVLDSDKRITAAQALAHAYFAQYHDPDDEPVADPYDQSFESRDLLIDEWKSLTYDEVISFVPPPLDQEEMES

In the case of `O=S(=O)(c1cccc2c(O)nccc12)N1CCCNCC1` [M3], the half-life [1] is listed as “about 8 hours”.
In the case of `O=c1ncn2nc(Sc3ccc(F)cc3F)ccc2c1-c1c(Cl)cccc1Cl` [Neflamapimod], the “primary endpoint of improving episodic memory” value ([2]; Phase 2) is listed as “failed its primary endpoint”, the “tau in the cerebrospinal fluid” value ([2]; Phase 2) is listed as “reducing tau” and the Aβ deposition ([2]; in humans) is listed as “no effect on Aβ deposition”.
In the case of `O=S(=O)(c1cccc2cnccc12)N1CCCNCC1` [fasudil, Hexahydro-1-(5-Isoquinolinesulfonyl)-1H-1,4-Diazepine Monohydrochloride Hemihydrate], the “ß-amyloid plaques in vivo” value [3] is given as “reduce ß-amyloid plaques”, the “latency distance and quadrant time in the Morris water maze” value [4] is given as “improved” and the “latency distance and quadrant time in the Morris water maze” value [5] is given as “improved”. The “cognitive improvements (MMSE)” value ([6]; 30 mg and 60 mg per day, case studies) was “about 3 points”, the dose response ([6]; 30 mg and 60 mg per day) was “no dose response” and the spatial orientation ([6]; case studies) was “no improvement in spatial orientation”. For the same compound, the wandering symptoms ([6]; patient with Binswanger-type cerebral infarction, within weeks of beginning treatment) was “wandering symptoms disappeared”, the “MMSE differential versus control” value ([7]; 30 mg iv daily, control intravenous ligustrazine) was 7 point and the “improvement in MMSE over baseline” value ([7]; 30 mg iv infusion daily, 2 weeks, 2 days off, 2 more weeks, mean or median unclear) was 9 point. For the same compound, the “ADL score after treatment” value ([7]; after treatment, baseline 54, >26 functionally impaired) was 36, the “MMSE score after treatment” value ([7]; after treatment, baseline mean about 17) was ~27 and the spatial memory [8] was “did not observe improvements in spatial memory”.
